tested on: monocarboxylate transporters; assay: Lactate consumption assay in tumor cell lines (enzymatic L-Lactate Kit II); format: cell-based; settings: tumor cells in 10 mM lactate medium, compound 24 hours; concentration not given
Experimental: Lactate Consumption Assay in Tumor Cell Lines.
Cells are maintained in their appropriate growth medium (DMEM medium with 4.5 g/L glucose, 4 mM L-glutamine supplemented with 10% FBS and P/S (growth medium). Cells (500,000 cells/well) were seeded in 24-well plate in growth medium for 6 hours. Replace the growth medium with 1 mL lactate medium (10 mM lactate in base DMEM without sodium pyruvate) for overnight. Cells were treated with compounds in 1 mL lactate medium for 24 hours. The culture medium was collected and centrifuged at 12,000 rpm for 5 minutes at 4° C. to get rid of any cell debris. An aliquot of 0.5 mL of the supernatant was loaded to a deproteinizing column, centrifuged at 12,000 rpm for 15 minutes at 4° C. The flow-through was collected and stored at -80° C. for future analysis. The amount of lactate in the supernatant was analyzed by enzymatic L-Lactate Kit II (Eton Bioscience Inc.). Briefly, 50 μL of 10 times diluted sample was mixed with 50 μL reaction mixture. Lactic acid is oxidized by enzyme reactions to yield color product, which can be measured in dual modes, either at 570 nm for colorimetric assay or with Ex 530-560/Em 570-595 nm fluorescence assay. And the color or fluorescence intensity is proportional to lactic acid concentrations, therefore the sample lactic acid concentration can be accurately calculated based on the lactic acid standards. […]

Lactate Consumption [Lactate Kit] (%)/[IC50] [%]	SMILES
86	CC(C)Cn1cc(C(=O)O)c(=O)c2cc(F)c(N(C)Cc3ccccc3)cc21 [Example 1, 7-(benzyl(methyl)amino)-6-fluoro-1-isobutyl-4-oxo-1,4-dihydroquinoline-3-carboxylic acid]

tested on: panel of solid and haemotological tumor cell lines; assay: MTS or MTT cell proliferation assay (cytotoxicity of MCT inhibition); format: cell-based; settings: Homo sapiens; MTS or MTT readout, 72 hours post-dosing; growth medium or 10 mM lactate medium (SiHa); cell line not given
Experimental: MTS or MTT Cell Proliferation Assay
The anti-proliferation effect of MCT inhibition was investigated across a panel of solid and haemotological tumor cell lines. Cells were routinely cultured in their appropriate growth medium. On day 1, between 5,000 -10,000 cells/well were plated into 96-well plates. 100 μL of phosphate buffered saline solution was added to the external wells to prevent media evaporation. Plates were incubated overnight at 37° C. in the presence of 5% CO2. On day 2, dry weight compound stocks were dissolved to a concentration of 20 mM in 100% DMSO. Compounds were further diluted in either growth medium or 10 mM lactate medium (For SiHa cell lines; Basic DMEM, 10% FBS, 10 mM Na-Lactate, 2.2 g/L NaHCO3, no glutamine) to generate a final dose range of 10 nM to 100 μM. Plates were then incubated at 37° C. in the presence of 5% CO2 for a further 72 hours post-dosing. On day 5, 20 μL of CellTiter 96 AQ MTS reagent or MTT was added to each well and the plate was returned to the incubator for 2-4 hours. In case of lactate medium, the medium was replaced by 100 μL of growth medium and 20 μL of CellTiter 96 AQ MTS reagent or replaced the media in cells with 100 uL of growth media containing 10% MTT solution,. MTS or MTT is bioreduced by NADPH or NADH produced by dehydrogenase enzymes in metabolically active cells into a coloured formazan product that is soluble in tissue culture medium. The amount of coloured formazan product is directly proportional to the number of living cells in culture. In the case of MTT, after 4 hr incubation, the media was removed from the plates and the plate was air-dried. Then, 100 uL of DMSO was added to each well, and incubated for 30 mins at room temperature with mild shaking. The absorbance of the plates was read on a Synergy H4 plate reader using […] or 540 nm measurement wavelength. Dose response curves were plotted and IC50 values were calculated using Prism. The IC50 value is equivalent to the concentration of compound that causes 50% inhibition of growth calculated from the compound treated signal to the vehicle treated signal.

SMILES	EC50 [nM]
CC(C)Cn1cc(C(=O)O)c(=O)c2cc(F)c(N(C)Cc3ccccc3)cc21 [Example 1, 7-(benzyl(methyl)amino)-6-fluoro-1-isobutyl-4-oxo-1,4-dihydroquinoline-3-carboxylic acid]	< 1000
CC(C)Cn1cc(C(=O)O)c(=O)c2cc(F)c(N(C)Cc3cccc(C(F)(F)F)c3)cc21 [Example 3, 6-fluoro-1-isobutyl-7-(methyl(3-(trifluoro-methyl)benzyl)amino)-4-oxo-1,4-dihydroquinoline-3-carboxylic acid]	< 1000
CC(C)Cn1cc(C(=O)O)c(=O)c2cc(F)c(N(C)Cc3ccc(Cl)cc3)cc21 [Example 4, 7-((4-chlorobenzyl) (methyl)amino)-6-fluoro-1-isobutyl-4-oxo-1,4-dihydro-quinoline-3-carboxylic acid]	< 1000
CC(C)Cn1cc(C(=O)O)c(=O)c2cc(F)c(NCc3cccc(C(F)(F)F)c3)cc21 [Example 5, 6-fluoro-1-isobutyl-4-oxo-7-((3-(trifluoro-methyl)benzyl)amino)-1,4-dihydroquinoline-3-carboxylic acid]	< 1000
CCn1cc(C(=O)O)c(=O)c2cc(F)c(N(C)Cc3ccccc3)cc21 [Example 6, 7-(benzyl(methyl)amino)-1-ethyl-6-fluoro-4-oxo-1,4-dihydroquinoline-3-carboxylic acid]	< 1000
CC(C)Cn1cc(C(=O)O)c(=O)c2cc(F)c(N(C)Cc3cccc(F)c3)cc21 [Example 7, 6-fluoro-7-((3-fluorobenzyl)(methyl)amino)-1-isobutyl-4-oxo-1,4-dihydro-quinoline-3-carboxylic acid]	< 1000
COc1cccc(CN(C)c2cc3c(cc2F)c(=O)c(C(=O)O)cn3CC(C)C)c1 [Example 8, 6-fluoro-1-isobutyl-7-((3-methoxybenzyl) (methyl)amino)-4-oxo-1,4-dihydroquinoline-3-carboxylic acid]	< 1000
CC(C)Cn1cc(C(=O)O)c(=O)c2cc(F)c(N(C)CC3CCN(C)CC3)cc21 [Example 9, 6-fluoro-1-isobutyl-7-(methyl((1-methyl-piperidin-4-yl)methyl)amino)-4-oxo-1,4-dihydroquinoline-3-carboxylic acid]	< 1000
CC(C)Cn1cc(C(=O)O)c(=O)c2cc(F)c(N(C)Cc3cccs3)cc21 [Example 10, 6-fluoro-1-isobutyl-7-(methyl(thiophen-2-ylmethyl)amino)-4-oxo-1,4-dihydro-quinoline-3-carboxylic acid]	< 1000
CC(C)Cn1cc(C(=O)O)c(=O)c2cc(F)c(N(C)C(=O)c3ccccc3)cc21 [Example 11, 6-fluoro-1-isobutyl-7-(N-methylbenzamido)-4-oxo-1,4-dihydro-quinoline-3-carboxylic acid]	< 1000
COc1cccc(CN(C)c2cc3c(cc2F)c(=O)c(C(=O)O)cn3Cc2ccccc2)c1 [Example 12, 1-benzy1-6-fluoro-7-((3-methoxybenzyl) (methyl)amino)-4-oxo-1,4-dihydroquinoline-3-carboxylic acid]	< 1000
Cc1cc(C)n(Cc2cc3c(cc2C(=O)N2CCC2)c(=O)c(C(=O)O)cn3CC(C)C)n1 [Example 15, 6-(azetidine-1-carbonyl)-7-((3,5-dimethyl-1H-pyrazol-1-yl)methyl)-1-isobutyl-4-oxo-1,4-dihydroquinoline-3-carboxylic acid]	< 1000
CC(C)n1cc(C(=O)O)c(=O)c2cc(F)c(N(C)Cc3cccnc3)cc21 [Example 16, 6-fluoro-1-isopropyl-7-(methyl(pyridin-3-ylmethyl)amino)-4-oxo-1,4-dihydro-quinoline-3-carboxylic acid]	< 1000
CC(C)n1cc(C(=O)O)c(=O)c2cc(F)c(N(C)Cc3ccccc3)cc21 [Example 17, 7-(benzyl(methyl)amino)-6-fluoro-1-isopropyl-4-oxo-1,4-dihydro-quinoline-3-carboxylic acid]	< 1000
CC(C)n1cc(C(=O)O)c(=O)c2cc(F)c(N(C)Cc3ccc(F)cc3)cc21 [Example 18, 6-fluoro-7-((4-fluorobenzyl)(methyl)amino)-1-isopropyl-4-oxo-1,4-dihydro-quinoline-3-carboxylic acid]	< 1000

tested on: monocarboxylate transporters; assay: Lactate uptake by 14C-lactate labeling assay; format: cell-based; settings: SiHa cells, compound one hour, 2 μM 14C-lactate for 12 minutes; read-out: Lactate Consumption (%)/[IC50][14C labeled]
Experimental: Measuring Lactate Uptake by ^14 C-lactate Labeling Assay.
The inhibition of monocarboxylate transporters of the invention was determined using ^14CLactate, and the data are shown in Table II. Cells are maintained in their appropriate growth medium (DMEM medium with 4.5 g/L glucose, 4 mM L-glutamine supplemented with 10% FBS and P/S (growth medium). Cell culture surface of 24-well cell culture plates (BD Bioscience) were aseptically coated with 80 μL poly-lysine (1 mg/mL, Sigma) for 5 mins, then rinsed with sterile cell culture grade water, air-dried for at least 2 hours before introducing cells and medium. SiHa cells were seeded in poly-lysine coated 24-well plate at 500,000 cells/well in growth medium for 6 hours. Replace the growth medium with 1 mL lactate medium (10 mM lactate in base DMEM without sodium pyruvate) for overnight. Cells were rinsed with modified Kreb solution (containing 10 μM L-lactate, without glucose) and then treated with vehicle or increasing concentrations of compounds (0.1, 1, 10, 100 μM) at 37° C. in 1 mL modified Kreb solution (containing 10 μM L-lactate, 0.25% BSA) for one hour. […] After one hour agitation, the radioactivity was measured using Microbeta TriLux. CPM value was recorded and normalized to protein concentration.

IC50 [nM]	SMILES
< 1000	CC(C)Cn1cc(C(=O)O)c(=O)c2cc(F)c(N(C)Cc3ccccc3)cc21 [Example 1, 7-(benzyl(methyl)amino)-6-fluoro-1-isobutyl-4-oxo-1,4-dihydroquinoline-3-carboxylic acid]
